In patent publication US20250179027A1, “CYCLOALKYL OR HETEROCYCLYL SUBSTITUTED HETEROARYL COMPOUND, AND COMPOSITION AND USE THEREOF” (Shenzhen TargetRx, Inc., priority 2022, published 2025):

What was measured:
[1] = biological target: T1, phosphorylated BTK Y223 in NIH/3T3 BTK WT cells (Homo sapiens, UniProt Q06187); assay: Phosphor-BTK(Y223) assay, NIH/3T3 BTK WT cells; format: cell-based; details: phosphorylated BTK Y223, NIH/3T3 BTK WT cells; read-out: NIH/3T3 BTK-WT pBTK IC50
T1 construct: expressed in transfected cells; host or cells: NIH/3T3 (mouse fibroblasts) engineered to express BTK WT
T1 sequence (Q06187 whole entry): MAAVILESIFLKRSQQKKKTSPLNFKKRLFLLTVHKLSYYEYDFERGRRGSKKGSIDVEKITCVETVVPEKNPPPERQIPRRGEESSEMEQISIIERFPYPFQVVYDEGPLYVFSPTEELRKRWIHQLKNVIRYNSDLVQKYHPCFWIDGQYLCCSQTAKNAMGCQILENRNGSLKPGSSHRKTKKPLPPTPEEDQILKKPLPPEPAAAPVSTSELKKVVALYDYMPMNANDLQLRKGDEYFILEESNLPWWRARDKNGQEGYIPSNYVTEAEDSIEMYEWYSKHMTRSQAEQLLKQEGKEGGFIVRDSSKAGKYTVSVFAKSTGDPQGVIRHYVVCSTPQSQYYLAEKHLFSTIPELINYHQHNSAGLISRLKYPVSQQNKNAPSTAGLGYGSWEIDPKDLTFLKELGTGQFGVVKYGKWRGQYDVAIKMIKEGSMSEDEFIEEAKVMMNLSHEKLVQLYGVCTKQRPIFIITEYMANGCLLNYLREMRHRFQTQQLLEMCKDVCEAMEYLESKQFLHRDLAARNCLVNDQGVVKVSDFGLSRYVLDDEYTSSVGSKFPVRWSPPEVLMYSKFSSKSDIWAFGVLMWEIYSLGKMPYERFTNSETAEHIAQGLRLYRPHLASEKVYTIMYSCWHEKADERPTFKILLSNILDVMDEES
Procedure: (§1) The purpose of this assay is to simply, quickly and directly detect the endogenous level of BTK in cells. The specific assay steps are as follows: Day 1: NIH/3T3 BTK WT cells (7.5 k/well) and NIH/3T3 BTK C481S cells (10 k/well) were plated in 96-well plates, respectively, and cultured overnight at 37° C. and 5% CO2.
(§2) • 1. A 3-fold final concentration gradient dilution of the compound was prepared, and 50 μL was added to 100 μL of cell culture; 0.5% DMSO was used as a positive control for cell growth. • 2. The plate was incubated at 37° C., 5% CO2 for 0.5 h. • 3. Na3VO4 with a final concentration of 1 mM was added, and incubated at 37° C. and 5% CO2 for 2 hours. • 4. During the incubation, the following reagents were prepared: 1× added lysis buffer: 3 vol ddH2O+1 vol 4× lysis buffer+100× blocking reagent. p-BTK (Y223) cryptate-antibody and p-BTK (Y223) d2-antibody working solutions: 1 volume of each cryopreserved antibody (stored at −20° C.) was added to 19 times volumes of assay buffer (stored at 4° C.). • 5. After the incubation, the medium was removed and 50 μL of 1× added lysis buffer was added; The mixture was centrifuged at 500 rpm for 30 min at room temperature. • 6. The lysate was mixed well and 16 μL was transferred to a 384-well plate; 1× added lysis buffer was used as a blank control. • 7. 4 μL of pre-mixed working solutions of the two antibodies (cryptate Ab:d2 Ab=1:1) were added and the plate was sealed. • 8. The plate was incubated overnight at room temperature.
(§3) Biotek cytation3.0 microplate reader was used to read the plate at 665 nm and 620 nm, and the ratio of 665/620 nm per well was calculated.
(§4) IC50 was calculated using GraphPad Prism 7.0 software.
(§5) The following nonlinear fitting formula was used to obtain the phosphorylated BTK Y223 IC50 (half phosphorylation inhibitory concentration) of the compounds:
(§6) [formula] • X: Compound concentration log value • Y: Inhibition rate (% inhibition)
(§7) The formula for calculating cell phosphorylation inhibition rate (% inhibition rate) was: […]

[2] = biological target: T2, phosphorylated BTK Y223 in NIH/3T3 BTK C481S cells (Homo sapiens, UniProt Q06187, C481S); assay: Phosphor-BTK(Y223) assay, NIH/3T3 BTK C481S cells; format: cell-based; details: phosphorylated BTK Y223, NIH/3T3 BTK C481S cells; read-out: NIH/3T3 BTK-C481S pBTK IC50
T2 construct: expressed in transfected cells; host or cells: NIH/3T3 (mouse fibroblasts) engineered to express BTK C481S
T2 sequence (Q06187 whole entry C481S): as the sequence (Q06187 whole entry) above, with C481S counted along it
Procedure: as §1, §2, §3, §4, §5, §6, §7

| Compound | IC50 [1] [nM] | IC50 [2] [nM] |
| --- | --- | --- |
| COc1ccc(F)cc1C(=O)NCc1ccc(-c2nc(C3CCCC(O)C3)n3ccnc(N)c23)cc1 (single isomer, unassigned) [Example 21, N-(4-(8-amino-3-(3-hydroxycyclohexanyl)imidazo[1,5-a]pyrazin-1-yl)benzyl)-5-fluoro-2-methoxybenzamide] | 25 to 50 | 50 to 100 |
| COc1ccc(F)cc1C(=O)NCc1ccc(-c2nn(C3CCC(O)C3)c3ncnc(N)c23)cc1 (stereo not drawn) [Example 32, N-(4-(4-amino-1-(3-hydroxycyclopentanyl)-1H-pyrazolo[3,4-d]pyrimidin-3-yl)benzyl)-5-fluoro-2-methoxybenzamide] | ≤ 25 | ≤ 25 |
| COc1ccc(F)cc1C(=O)NCc1ccc(-c2nn(C3CCCC(C)(O)C3)c3ncnc(N)c23)cc1 (single isomer, unassigned) [Example 26, N-(4-(4-amino-1-(3-hydroxy-3-methylcyclohexanyl)-1H-pyrazolo[3,4-d]pyrimidin-3-yl)benzyl)-5-fluoro-2-methoxybenzamide] | 25 to 50 | 50 to 100 |
| COc1ccc(F)cc1C(=O)NCc1ccc(-c2cc(C3CCC(CO)OC3)n3ncnc(N)c23)cc1 (single isomer, unassigned) [Example 61, N-(4-(4-amino-7-(6-(hydroxymethyl)tetrahydro-2H-pyran-3-yl)pyrrolo[2,1-f][1,2,4]triazin-5-yl)benzyl)-5-fluoro-2-methoxybenzamide] | ≤ 25 | 25 to 50 |
| COc1ccc(F)cc1C(=O)NCc1ccc(-c2nn([C@@H]3C=C[C@@H](O)C3)c3ncnc(N)c23)cc1 (single isomer, unassigned) [Example 37, trans-N-(4-(4-amino-1-(4-hydroxycyclopent-2-en-1-yl)-1H-pyrazolo[3,4-d]pyrimidin-3-yl)benzyl)-5-fluoro-2-methoxybenzamide] | 25 to 50 | 50 to 100 |
| COc1ccc(F)cc1C(=O)NCc1ccc(-c2nn(C3CCCC(C)(O)C3)c3ncnc(N)c23)cc1 (single isomer, unassigned) [Example 23, N-(4-(4-amino-1-(3-hydroxy-3-methylcyclohexanyl)-1H-pyrazolo[3,4-d]pyrimidin-3-yl)benzyl)-5-fluoro-2-methoxybenzamide] | 25 to 50 | 25 to 50 |
| COc1ccc(F)cc1C(=O)NCc1ccc(-c2nn(C3CCC(CO)OC3)c(N)c2C(N)=O)cc1 (stereo not drawn) [Example 12, 5-amino-3-(4-((5-fluoro-2-methoxybenzamido)methyl)phenyl)-1-(6-(hydroxymethyl)tetrahydro-2H-pyran-3-yl)-1H-pyrazole-4-carboxamide] | 100 to 500 | 100 to 500 |
| COc1ccc(F)cc1C(=O)NCc1ccc(-c2nn(C3CCC(CO)OC3)c(N)c2C(N)=O)cc1 (single isomer, unassigned) [Example 13, 5-amino-3-(4-((5-fluoro-2-methoxybenzamido)methyl)phenyl)-1-(6-(hydroxymethyl)tetrahydro-2H-pyran-3-yl)-1H-pyrazole-4-carboxamide] | 50 to 100 | 100 to 500 |
| COc1ccc(F)cc1C(=O)NCc1ccc(-c2nn(C3CCC(CO)OC3)c3c(=O)[nH]nc(N)c23)cc1 (stereo not drawn) [Example 43, N-(4-(4-amino-1-(6-(hydroxymethyl)tetrahydro-2H-pyran-3-yl)-7-oxo-6,7-dihydro-1H-pyrazolo[3,4-d]pyridazin-3-yl)benzyl)-5-fluoro-2-methoxybenzamide] | 100 to 500 | 100 to 500 |
| COc1ccc(F)cc1C(=O)NCc1ccc(-n2cc(C3CCC(CO)OC3)c3ncnc(N)c32)cc1 (single isomer, unassigned) [Example 52, N-(4-(4-amino-7-(6-(hydroxymethyl)tetrahydro-2H-pyran-3-yl)-5H-pyrrolo[3,2-d]pyrimidin-5-yl)benzyl)-5-fluoro-2-methoxybenzamide] | 50 to 100 | 100 to 500 |
| COc1ccc(F)cc1C(=O)NCc1ccc(-c2nn([C@H]3CCC[C@H](O)C3)c3ncnc(N)c23)cc1 (racemic) [Example 9, trans-N-(4-(4-amino-1-(3-hydroxycyclohexanyl)-1H-pyrazolo[3,4-d]pyrimidin-3-yl)benzyl)-5-fluoro-2-methoxybenzamide] | ≤ 25 | ≤ 25 |
| COc1ccc(F)cc1C(=O)NCc1ccc(-c2nn([C@@H]3C=C[C@@H](O)C3)c3ncnc(N)c23)cc1 (single isomer, unassigned) [Example 49, trans-N-(4-(4-amino-1-(4-hydroxycyclopent-2-en-1-yl)-1H-pyrazolo[3,4-d]pyrimidin-3-yl)benzyl)-5-fluoro-2-methoxybenzamide] | ≤ 25 | 25 to 50 |
| COc1ccc(F)cc1C(=O)NCc1ccc(-c2nn([C@H]3CC[C@@H](O)CC3)c3c(=O)[nH]nc(N)c23)cc1 [Example 39, cis-N-(4-(4-amino-1-((1S,4S)-4-hydroxycyclohexanyl)-7-oxo-6,7-dihydro-1H-pyrazolo[3,4-d]pyridazin-3-yl)benzyl)-5-fluoro-2-methoxybenzamide] | 50 to 100 | 100 to 500 |
| COc1ccc(F)cc1C(=O)NCc1ccc(-c2nn(C3CCC(CO)OC3)c3ncnc(N)c23)cc1 (single isomer, unassigned) [Example 19, N-(4-(4-amino-1-(6-(hydroxymethyl)tetrahydro-2H-pyran-3-yl)-1H-pyrazolo[3,4-d]pyrimidin-3-yl)benzyl)-5-fluoro-2-methoxybenzamide] | 25 to 50 | 50 to 100 |
| COc1ccc(F)cc1C(=O)NCc1ccc(-c2nn([C@H]3CC[C@H](O)CC3)c3c(=O)[nH]nc(N)c23)cc1 [Example 40, trans-N-(4-(4-amino-1-((1R,4R)-4-hydroxycyclohexanyl)-7-oxo-6,7-dihydro-1H-pyrazolo[3,4-d]pyridazin-3-yl)benzyl)-5-fluoro-2-methoxybenzamide] | 25 to 50 | 50 to 100 |
| COc1ccc(F)cc1C(=O)NCc1ccc(-c2nn(C3CCCC(O)C3)c(N)c2C(N)=O)cc1 (single isomer, unassigned) [Example 2, 5-amino-3-(4-((5-fluoro-2-methoxybenzoylamino)methyl)phenyl)-1-(3-hydroxycyclohexyl)-1H-pyrazole-4-carboxamide] | 50 to 100 | 50 to 100 |
| COc1ccc(F)cc1C(=O)NCc1ccc(-c2nn(C3CCC(CO)OC3)c3ncnc(N)c23)cc1 (stereo not drawn) [Example 15, N-(4-(4-amino-1-(6-(hydroxymethyl)tetrahydro-2H-pyran-3-yl)-1H-pyrazolo[3,4-d]pyrimidin-3-yl)benzyl)-5-fluoro-2-methoxybenzamide] | ≤ 25 | 50 to 100 |
| COc1ccc(F)cc1C(=O)NCc1ccc(-c2nn(C3CCCC(C)(O)C3)c3ncnc(N)c23)cc1 (single isomer, unassigned) [Example 28, N-(4-(4-amino-1-(3-hydroxy-3-methylcyclohexanyl)-1H-pyrazolo[3,4-d]pyrimidin-3-yl)benzyl)-5-fluoro-2-methoxybenzamide] | ≤ 25 | 25 to 50 |
